# Activity calls are given as the source filed them. The rule behind the calls is not given here.
# Assays:
# [1] = Cytotoxicity against HEK293T cells assessed as inhibition of cell growth by MTT assay; assay type: toxicity, cell-based, HEK-293T; conditions: human
# HCT-116 [2] = assay: Induction of apoptosis in human HCT-116 cells assessed as late apoptotic cells at 25 uM by Annexin V-FITC staining based flow cytometry (reference value: 3.51 %); assay type: functional
# HCT-116 [3] = assay: Anticancer activity against human HCT-116 cells assessed as inhibition of cell growth by MTT assay; assay type: functional, cell-based
# SW480 [4] = assay: Antimigratory activity against human SW480 cells assessed as inhibition of cell migration by wound healing assay relative to control; assay type: functional; design: scale not given: the % may be the effect or the level left
# [5] = Cytotoxicity against human L02 cells assessed as inhibition of cell growth by MTT assay; assay type: toxicity, cell-based
# HCT-116 [6] = assay: Induction of apoptosis in human HCT-116 cells assessed as necrotic cells at 25 uM by Annexin V-FITC staining based flow cytometry (reference value: 0.73 %); assay type: functional
# SW480 [7] = assay: Induction of apoptosis in human SW480 cells assessed as necrotic cells at 25 uM by Annexin V-FITC staining based flow cytometry (reference value: 3.05 %); assay type: functional
# [8] = Solubility of the compound in 0.9% NaCl solution; assay type: physicochemical
# SW480 [9] = assay: Induction of apoptosis in human SW480 cells assessed as late apoptotic cells at 25 uM by Annexin V-FITC staining based flow cytometry (reference value: 5.12 %); assay type: functional
# HCT-116 [10] = assay: Induction of apoptosis in human HCT-116 cells assessed as early apoptotic cells at 25 uM by Annexin V-FITC staining based flow cytometry (reference value: 1.46 %); assay type: functional
# HCT-116 [11] = assay: Induction of apoptosis in human HCT-116 cells assessed as viable cells at 25 uM by Annexin V-FITC staining based flow cytometry (reference value: 94.3%); assay type: functional; conditions: read-out: Activity
# SW480 [12] = assay: Induction of apoptosis in human SW480 cells assessed as viable cells at 25 uM by Annexin V-FITC staining based flow cytometry (reference value: 89.3 %); assay type: functional; conditions: read-out: Activity
# [13] = Toxicity in iv dosed nude mouse xenografted with human SW480 cells assessed as effect on body weight administered at 3 days intervals for 21 days; assay type: organism-based; conditions: in vivo, 504 h, time 21 day
# SW480 [14] = assay: Anticancer activity against human SW480 cells assessed as inhibition of cell growth by MTT assay; assay type: functional, cell-based
# [15] = Solubility of the compound in water; assay type: physicochemical
# [16] = Solubility of the compound in Tween 80 solution; assay type: physicochemical
# [17] = Toxicity in nude mouse xenografted with human SW480 cells assessed as effect on body weight at 0.008 to 0.016 mmol/Kg, iv administered at 3 days intervals for 21 days; assay type: organism-based; conditions: in vivo, 504 h, dose 0.008-0.016 mmol/Kg, time 21 day
# [18] = Toxicity in nude mouse xenografted with human SW480 cells assessed as effect on creatinine level at 0.016 mmol/Kg, iv administered at 3 days intervals for 21 days; assay type: organism-based; conditions: in vivo, 504 h, time 21 day
# SW480 [19] = assay: Antitumor activity against human SW480 cells xenografted in mouse assessed as reduction in tumor growth at 0.008 to 0.016 mmol/Kg, iv administered at 3 days intervals for 21 days; assay type: functional, organism-based; conditions: dose 0.008-0.016 mmol/Kg, time 21.0 day
# HCT-116 [20] = assay: Induction of apoptosis in human HCT-116 cells assessed as appearance of wrinkled and round cells by Hoechst 33258 staining based analysis; assay type: functional, cell-based
# [21] = Selectivity index, ratio of IC50 for cytotoxicity against human L02 cells to IC50 for anticancer activity against human SW480 cells; assay type: toxicity, cell-based; conditions: L02 cells and SW480 cells, read-out: Ratio IC50
# SW480 [22] = assay: Inhibition of cell invasion in human SW480 cells by Boyden chamber invasion assay; assay type: functional, cell-based; conditions: dose 5-50 µM
# [23] = Selectivity index, ratio of IC50 for cytotoxicity against HEK293T cells to IC50 for anticancer activity against human SW480 cells; assay type: toxicity, cell-based; conditions: HEK293T cells and SW480 cells, read-out: Ratio IC50
# [24] = Selectivity index, ratio of IC50 for cytotoxicity against human L02 cells to IC50 for anticancer activity against human HCT-116 cells; assay type: toxicity, cell-based; conditions: L02 cells and HCT-116 cells, read-out: Ratio IC50
# HCT-116 [25] = assay: Induction of apoptosis in human HCT-116 cells assessed as blue chromatin condensation by Hoechst 33258 staining based analysis; assay type: functional, cell-based
# [26] = Toxicity in nude mouse xenografted with human SW480 cells assessed as effect on albumin level at 0.016 mmol/Kg, iv administered at 3 days intervals for 21 days; assay type: organism-based; conditions: in vivo, 504 h, time 21 day
# SW480 [27] = assay: Induction of apoptosis in human SW480 cells assessed as blue chromatin condensation by Hoechst 33258 staining based analysis; assay type: functional, cell-based
# [28] = Toxicity in nude mouse xenografted with human SW480 cells assessed as effect on MCV level at 0.016 mmol/Kg, iv administered at 3 days intervals for 21 days by routine blood test; assay type: organism-based; conditions: in vivo, 504 h, time 21 day
# [29] = Toxicity in nude mouse xenografted with human SW480 cells assessed as effect on total protein level at 0.016 mmol/Kg, iv administered at 3 days intervals for 21 days; assay type: organism-based; conditions: in vivo, 504 h, time 21 day
# [30] = Toxicity in nude mouse xenografted with human SW480 cells assessed as effect on MCH level at 0.016 mmol/Kg, iv administered at 3 days intervals for 21 days by routine blood test; assay type: organism-based; conditions: in vivo, 504 h, time 21 day
# SW480 [31] = assay: Antitumor activity against human SW480 cells xenografted in iv dosed mouse assessed as reduction in tumor volume administered at 3 days intervals for 21 days; assay type: functional, organism-based; conditions: dose 0.008-0.016 mmol/Kg, time 21.0 day
# HCT-116 [32] = assay: Induction of apoptosis in human HCT-116 cells assessed as appearance of paired apoptotic vesicles around the nucleus by Hoechst 33258 staining based analysis; assay type: functional, cell-based
# [33] = Toxicity in nude mouse xenografted with human SW480 cells assessed as effect on cholesterol level at 0.016 mmol/Kg, iv administered at 3 days intervals for 21 days; assay type: organism-based; conditions: in vivo, 504 h, time 21 day
# [34] = Toxicity in nude mouse xenografted with human SW480 cells assessed as effect on RBC level at 0.016 mmol/Kg, iv administered at 3 days intervals for 21 days by routine blood test; assay type: organism-based, Erythrocyte; conditions: in vivo, 504 h, time 21 day
# [35] = Toxicity in nude mouse xenografted with human SW480 cells assessed as effect on hemoglobin level at 0.016 mmol/Kg, iv administered at 3 days intervals for 21 days by routine blood test; assay type: organism-based; conditions: in vivo, 504 h, time 21 day
# SW480 [36] = assay: Antitumor activity against human SW480 cells xenografted in mouse assessed as reduction in tumor weight at 0.008 to 0.016 mmol/Kg, iv administered at 3 days intervals for 21 days; assay type: functional, organism-based; conditions: dose 0.008-0.016 mmol/Kg, time 21.0 day
# SW480 [37] = assay: Induction of apoptosis in human SW480 cells assessed as appearance of paired apoptotic vesicles around the nucleus by Hoechst 33258 staining based analysis; assay type: functional, cell-based
# [38] = Toxicity in nude mouse xenografted with human SW480 cells assessed as effect on PDW at 0.016 mmol/Kg, iv administered at 3 days intervals for 21 days by routine blood test; assay type: organism-based; conditions: in vivo, 504 h, time 21 day
# SW480 [39] = assay: Induction of apoptosis in human SW480 cells assessed as early apoptotic cells at 25 uM by Annexin V-FITC staining based flow cytometry (reference value: 2.53 %); assay type: functional
# [40] = Toxicity in nude mouse xenografted with human SW480 cells assessed as effect on WBC level at 0.016 mmol/Kg, iv administered at 3 days intervals for 21 days by routine blood test; assay type: organism-based; conditions: in vivo, 504 h, time 21 day
# SW480 [41] = assay: Induction of apoptosis in human SW480 cells assessed as appearance of wrinkled and round cells by Hoechst 33258 staining based analysis; assay type: functional, cell-based
# [42] = Selectivity index, ratio of IC50 for cytotoxicity against HEK293T cells to IC50 for anticancer activity against human HCT-116 cells; assay type: toxicity, cell-based; conditions: HEK293T cells and HCT-116 cells, read-out: Ratio IC50
# HCT-116 [43] = assay: Inhibition of cell invasion in human HCT-116 cells by Boyden chamber invasion assay; assay type: functional, cell-based; conditions: dose 5-50 µM
# HCT-116 [44] = assay: Antimigratory activity against human HCT-116 cells assessed as inhibition of cell migration by wound healing assay relative to control; assay type: functional; design: scale not given: the % may be the effect or the level left
# [45] = Toxicity in nude mouse xenografted with human SW480 cells assessed as effect on alanine transaminase level at 0.016 mmol/Kg, iv administered at 3 days intervals for 21 days; assay type: organism-based; conditions: in vivo, 504 h, time 21 day
# [46] = Toxicity in nude mouse xenografted with human SW480 cells assessed as effect on blood urea nitrogen level at 0.016 mmol/Kg, iv administered at 3 days intervals for 21 days; assay type: organism-based; conditions: in vivo, 504 h, time 21 day
smiles,measurement,setting,value
CCc1c2c(nc3ccc(OC(=O)N4CCC(N5CCCCC5)CC4)cc13)-c1cc3c(c(=O)n1C2)COC(=O)[C@]3(O)CC [IRINOTECAN],IC50,[1],19.8 µM
same,Activity,HCT-116 [2],6.15%
same,IC50,HCT-116 [3],14.2 µM
same,Activity,SW480 [4],74.5%
same,IC50,[5],22.2 µM
same,Activity,HCT-116 [6],0.256%
same,Activity,SW480 [7],0.871%
same,solubility,[8],1200 µg/mL
same,Activity,SW480 [9],10.7%
same,Activity,HCT-116 [10],1.51%
same,viability at 25 µM,HCT-116 [11],92.5%
same,viability at 25 µM,SW480 [12],85%
same,Activity,[13],Non-Toxic
same,IC50,SW480 [14],11.2 µM
same,solubility,[15],5590 µg/mL
CCc1c2c(nc3ccc(O)cc13)-c1cc3c(c(=O)n1C2)COC(=O)[C@]3(O)CC [7-ETHYL-10-HYDROXYCAMPTOTHECIN],solubility,[8],17.6 µg/mL
same,solubility,[15],7.74 µg/mL
same,solubility,[16],77.4 µg/mL
CCc1c2c(nc3ccc(OC(=O)NCCOCc4cn(CCO[C@H]5O[C@@H](CO)[C@H](O)[C@@H](O)[C@@H]5O)nn4)cc13)-c1cc3c(c(=O)n1C2)COC(=O)[C@]3(O)CC,Activity,[17],Non-Toxic
same,Activity,[18],Non-Toxic
same,Activity,SW480 [19],Active
same,Activity,HCT-116 [20],Active
same,IC50,[1],19.8 µM
same,Activity,HCT-116 [2],14.1%
same,selectivity ratio,[21],9.62
same,inhibition,SW480 [22],Dose-Dependent Effect
same,IC50,HCT-116 [3],0.27 µM
same,Activity,SW480 [4],26.7%
same,IC50,[5],1.54 µM
same,Activity,HCT-116 [6],2.2%
same,selectivity ratio,[23],124
same,selectivity ratio,[24],5.7
same,Activity,HCT-116 [25],Active
same,Activity,[26],Non-Toxic
same,Activity,SW480 [27],Active
same,Activity,SW480 [7],5.33%
same,Activity,[28],Non-Toxic
same,Activity,[29],Non-Toxic
same,Activity,[30],Non-Toxic
same,Activity,SW480 [31],Dose-Dependent Effect
same,Activity,HCT-116 [32],Active
same,Activity,[33],Non-Toxic
same,Activity,[34],Non-Toxic
same,Activity,SW480 [9],38.7%
same,Activity,[35],Non-Toxic
same,Activity,SW480 [36],Active
same,Activity,HCT-116 [10],3.67%
same,Activity,SW480 [37],Active
same,viability at 25 µM,HCT-116 [11],80.1%
same,Activity,[38],Non-Toxic
same,viability at 25 µM,SW480 [12],50%
same,Activity,SW480 [39],6%
same,Activity,[40],Non-Toxic
same,IC50,SW480 [14],0.16 µM
same,Activity,SW480 [41],Active
same,solubility,[15],2530 µg/mL
same,selectivity ratio,[42],73.5
same,inhibition,HCT-116 [43],Dose-Dependent Effect
same,Activity,HCT-116 [44],20.1%
same,Activity,[45],Non-Toxic
same,Activity,[46],Non-Toxic
